In patent US20260159520A1, “HETEROBIFUNCTIONAL COMPOUNDS AND METHODS OF TREATING DISEASE” (Halda Therapeutics OpCo, Inc., priority 2022, published 2026):

Experiments:
[1] = system: T-Rex 293 cell line SC cells having increased expression of progesterone receptor isoform B protein; assay: Cellular growth inhibition, T-Rex 293 SC cells with doxycycline (increased progesterone receptor isoform B expression); type: cell-based; details: with 10 ng/mL doxycycline (increased progesterone receptor isoform B), 72 hours, CellTiter-Glo 2.0
[2] = system: T-Rex 293 cell line SC cells lacking increased expression of progesterone receptor isoform B protein; assay: Cellular growth inhibition, T-Rex 293 SC cells without doxycycline; type: cell-based; details: not exposed to doxycycline, 72 hours, CellTiter-Glo 2.0
androgen receptor = molecular target: T1, androgen receptor (Homo sapiens, UniProt P10275); assay: Binding affinity to androgen receptor ([3H]methyltrienolone radioligand, cell cytosol); details: Table 6
T1 construct: endogenous in cells; host or cells: unnamed cells (cytosol fraction)
T1 sequence (P10275 1-920): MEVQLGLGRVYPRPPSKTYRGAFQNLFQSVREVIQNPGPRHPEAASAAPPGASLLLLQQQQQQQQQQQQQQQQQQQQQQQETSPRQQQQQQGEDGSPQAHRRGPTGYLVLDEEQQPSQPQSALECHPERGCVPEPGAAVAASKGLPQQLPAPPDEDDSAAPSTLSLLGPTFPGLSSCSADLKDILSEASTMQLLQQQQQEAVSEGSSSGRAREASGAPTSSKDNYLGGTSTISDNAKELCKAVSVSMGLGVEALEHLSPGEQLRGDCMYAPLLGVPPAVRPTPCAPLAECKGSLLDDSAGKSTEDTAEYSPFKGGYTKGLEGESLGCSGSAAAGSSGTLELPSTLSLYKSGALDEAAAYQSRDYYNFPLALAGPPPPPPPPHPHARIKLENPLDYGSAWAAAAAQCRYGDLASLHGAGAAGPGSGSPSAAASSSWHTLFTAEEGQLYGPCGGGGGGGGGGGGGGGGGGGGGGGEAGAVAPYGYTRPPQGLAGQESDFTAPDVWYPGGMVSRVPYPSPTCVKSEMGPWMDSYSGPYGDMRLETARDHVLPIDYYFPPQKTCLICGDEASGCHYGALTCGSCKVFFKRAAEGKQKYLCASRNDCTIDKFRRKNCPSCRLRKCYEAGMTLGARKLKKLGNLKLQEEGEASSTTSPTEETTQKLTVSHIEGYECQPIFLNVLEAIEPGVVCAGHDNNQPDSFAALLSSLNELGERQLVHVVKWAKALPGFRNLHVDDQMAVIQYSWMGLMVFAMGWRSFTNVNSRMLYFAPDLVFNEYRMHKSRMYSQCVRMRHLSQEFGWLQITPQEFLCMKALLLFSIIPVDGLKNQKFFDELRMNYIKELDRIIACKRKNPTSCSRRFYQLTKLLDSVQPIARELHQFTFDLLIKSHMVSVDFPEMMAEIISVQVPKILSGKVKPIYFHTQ
How it was run: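 Cell cytosol incubated 24 h at 4 °C with 1 nM [3H]methyltrienolone in Hepes-Tris pH 7.4 buffer containing molybdate, DTT, 5 μM triamcinolone acetonide and glycerol; nonspecific binding with 1 μM testosterone. Filtration and scintillation counting; reported as % inhibition of specific binding.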

SMILES | Kd (androgen receptor) [nM] | GI50 [1] [nM] | GI50 [2] [nM]
CCc1cnn2c(NCc3ccc(=O)n(CCOCCOCCOCCOCCOCCOCCN(C)c4ncc(C(=O)N[C@H]5C(C)(C)[C@H](Oc6ccc(C#N)c(Cl)c6)C5(C)C)cn4)c3)cc(N3CCCC[C@H]3CCO)nc12 [Compound I-4, N-((1r,3r)-3-(3-chloro-4-cyanophenoxy)-2,2,4,4-tetramethylcyclobutyl)-2-((20-(5-(((3-ethyl-5-((S)-2-(2-hydroxyethyl)piperidin-1-yl)pyrazolo[1,5-a]pyrimidin-7-yl)amino)methyl)-2-oxopyridin-1(2H)-yl)-3,6,9,12,15,18-hexaoxaicosyl)(methyl)amino)pyrimidine-5-carboxamide] | < 50 | < 500 | < 500
CC1(C)[C@H](NC(=O)c2cnc(N3CCC(OCCNS(=O)(=O)c4ccc(Nc5ncc(Br)c(Nc6cccc(F)c6C(N)=O)n5)cc4)CC3)nc2)C(C)(C)[C@H]1Oc1ccc(C#N)c(Cl)c1 [Compound I-13, 2-(4-(2-((4-((5-bromo-4-((2-carbamoyl-3-fluorophenyl)amino)pyrimidin-2-yl)amino)phenyl)sulfonamido)ethoxy)piperidin-1-yl)-N-((1 r,3r)-3-(3-chloro-4-cyanophenoxy)-2,2,4,4-tetramethylcyclobutyl)pyrimidine-5-carboxamide] | < 50 | > 3000 | > 3000
Cc1ncc(-c2nc(Nc3ccc(C(=O)N4CC[C@H](N(C)CCOCCOCCOC5CCN(c6ncc(C(=O)N[C@H]7C(C)(C)[C@H](Oc8ccc(C#N)c(Cl)c8)C7(C)C)cn6)CC5)C4)cc3)ncc2F)n1C(C)C [Compound I-96] |  | 1500 to 3000 | 1500 to 3000
Cc1ncc(-c2nc(Nc3ccc(C(=O)N4CC[C@H](N(C)CCOCCOCCOCCOCCOC5CCN(c6ncc(C(=O)N[C@H]7C(C)(C)[C@H](Oc8ccc(C#N)c(Cl)c8)C7(C)C)cn6)CC5)C4)cc3)ncc2F)n1C(C)C [Compound I-97] |  | 500 to 1500 | 1500 to 3000

The next lines start with results.

Kd (androgen receptor) [nM] | SMILES | GI50 [1] [nM] | GI50 [2] [nM]
< 50 | CCc1cnn2c(NCc3ccc(OCCOCCOCCOCCOCCOCCOCCN(C)c4ncc(C(=O)N[C@H]5C(C)(C)[C@H](Oc6ccc(C#N)c(Cl)c6)C5(C)C)cn4)nc3)cc(N3CCCC[C@H]3CCO)nc12 [Compound I-5] | < 500 | 500 to 1500
< 50 | CCc1cnn2c(NCc3ccc(OCCOC4CCN(c5ncc(C(=O)N[C@H]6C(C)(C)[C@H](Oc7ccc(C#N)c(Cl)c7)C6(C)C)cn5)CC4)nc3)cc(N3CCCC[C@H]3CCO)nc12 [Compound I-7, N-((1r,3r)-3-(3-chloro-4-cyanophenoxy)-2,2,4,4-tetramethylcyclobutyl)-2-(4-(2-((5-(((3-ethyl-5-((S)-2-(2-hydroxyethyl)piperidin-1-yl)pyrazolo[1,5-a]pyrimidin-7-yl)amino)methyl)pyridin-2-yl)oxy)ethoxy)piperidin-1-yl)pyrimidine-5-carboxamide] | < 500 | < 500
< 50 | CCc1cnn2c(NCc3ccc(OCCOCCOCCOC4CCN(c5ncc(C(=O)N[C@H]6C(C)(C)[C@H](Oc7ccc(C#N)c(Cl)c7)C6(C)C)cn5)CC4)nc3)cc(N3CCCC[C@H]3CCO)nc12 [Compound I-8] | < 500 | < 500
< 50 | CCc1cnn2c(NCc3ccc(COCCN4CCN(CC5CCN(c6ncc(C(=O)N[C@H]7C(C)(C)[C@H](Oc8ccc(C#N)c(Cl)c8)C7(C)C)cn6)CC5)CC4)nc3)cc(N3CCCC[C@H]3CCO)nc12 [Compound I-42] | < 500 | < 500
50 to 500 | CCc1cnn2c(NCc3ccc(OCCOCCOCCOC4CCN(c5ccc(C(=O)N[C@H]6C(C)(C)[C@H](Oc7ccc(C#N)c(Cl)c7)C6(C)C)nn5)CC4)nc3)cc(N3CCCC[C@H]3CCO)nc12 [Compound I-44, N-((1r,3r)-3-(3-chloro-4-cyanophenoxy)-2,2,4,4-tetramethylcyclobutyl)-6-(4-(2-(2-(2-((5-(((3-ethyl-5-((S)-2-(2-hydroxyethyl)piperidin-1-yl)pyrazolo[1,5-a]pyrimidin-7-yl)amino)methyl)pyridin-2-yl)oxy)ethoxy)ethoxy)ethoxy)piperidin-1-yl)pyridazine-3-carboxamide] | < 500 | < 500
< 50 | CCc1cnn2c(NCc3ccc(OCCCN4CCN(CC5CCN(c6ccc(C(=O)N[C@H]7C(C)(C)[C@H](Oc8ccc(C#N)c(Cl)c8)C7(C)C)cn6)CC5)CC4)nc3)cc(N3CCCC[C@@H]3CCO)nc12 [Compound I-55, N-((1r,3r)-3-(3-chloro-4-cyanophenoxy)-2,2,4,4-tetramethylcyclobutyl)-6-(4-((4-(3-((5-(((3-ethyl-5-((R)-2-(2-hydroxyethyl)piperidin-1-yl)pyrazolo[1,5-a]pyrimidin-7-yl)amino)methyl)pyridin-2-yl)oxy)propyl)piperazin-1-yl)methyl)piperidin-1-yl)nicotinamide] | < 500 | < 500
< 50 | CCc1cnn2c(NCc3ccc(OCCCN4CCN(CC5CCN(c6ccc(C(=O)N[C@H]7C(C)(C)[C@H](Oc8ccc(C#N)c(Cl)c8)C7(C)C)cc6)CC5)CC4)nc3)cc(N3CCCC[C@@H]3CCO)nc12 [II-1, N-((1r,3r)-3-(3-chloro-4-cyanophenoxy)-2,2,4,4-tetramethylcyclobutyl)-4-(4-((4-(3-((5-(((3-ethyl-5-((R)-2-(2-hydroxyethyl)piperidin-1-yl)pyrazolo[1,5-a]pyrimidin-7-yl)amino)methyl)pyridin-2-yl)oxy)propyl)piperazin-1-yl)methyl)piperidin-1-yl)benzamide] | < 500 | < 500
